Some test systems named below: KM12 colon; NCI-H460 lung; NCI-H226 lung; BT-549 breast; U251 CNS; EKVX NSCLC; OVCAR-8 ovarian; MDA-N; M14 melanoma; SW-620 colon; OVCAR-4 ovarian.
Holding throughout (assay): growth of human tumour cells (NCI), 48 h

The results in this text go back to PubChem BioAssay (NCI).

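Each compound was tested at five concentrations against cells in 96-well plates for 48 hours. Here, GI50 denotes the concentration required for 50% inhibition of growth. TGI is the concentration that stops growth completely.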 A value given as a limit tells only on which side of the number the result lay.

Take `Oc1ccc(-c2nc3ccc(Cl)cc3s2)cc1`: the TGI in the test with KM12 colon was determined as 34.2 µM; in the test on NCI-H460 lung, 36.1 µM; in the test on NCI-H226 lung, 41.6 µM; in the test with BT-549 breast, 33.3 µM; with U251 CNS it was 46.9 µM; in the test with EKVX NSCLC it was 31 µM. Moreover, the TGI in the test on OVCAR-8 ovarian was 39 µM; in the test on MDA-N, 37.6 µM; in the test with M14 melanoma it was over 100 µM; in the test on SW-620 colon, 39.3 µM.

With `NC(=S)N/N=C\c1nccc2ccccc12`, the TGI in the test with KM12 colon was over 100 µM; in the test with NCI-H460 lung it was 25.5 µM; in the test with NCI-H226 lung, 0.54 µM; in the test on BT-549 breast, 13.9 µM; in the test on U251 CNS it was over 58.6 µM; in the test on EKVX NSCLC, 2.21 µM. Also, the TGI was 0.925 µM in the test with OVCAR-8 ovarian; over 100 µM with MDA-N; 2.42 µM in the test on M14 melanoma; 1.2 µM in the test on OVCAR-4 ovarian; over 100 µM in the test on SW-620 colon.

`CC1=C(C)Cc2c(O)ccc(O)c2C1`: the TGI is over 100 µM with KM12 colon; over 100 µM with NCI-H460 lung; 42.1 µM with NCI-H226 lung; 34.2 µM in the test with U251 CNS; 29.5 µM with EKVX NSCLC; 32.1 µM in the test with OVCAR-8 ovarian. Also, the TGI with MDA-N was 30.7 µM; in the test on M14 melanoma, 30 µM; with SW-620 colon it was 37.6 µM.

For `COc1ccc(-c2cc3[nH]nc(N)c3c(=O)o2)cc1`, the TGI in the test with KM12 colon, with NCI-H460 lung, in the test with U251 CNS, in the test with EKVX NSCLC, in the test with OVCAR-8 ovarian and with M14 melanoma was over 100 µM throughout. Moreover, the TGI with OVCAR-4 ovarian and in the test with SW-620 colon was over 100 µM throughout.

`CC(=O)C1CC[C@@H]2[C@H](CC[C@]3(C)[C@@H](O)CC[C@@H]23)[C@H]1C(=O)O` (stereo partly specified): the TGI with KM12 colon, in the test with NCI-H460 lung, with BT-549 breast, with U251 CNS, in the test with EKVX NSCLC and in the test on OVCAR-8 ovarian was over 100 µM throughout. Also, the TGI in the test with M14 melanoma, in the test with OVCAR-4 ovarian and in the test on SW-620 colon was over 100 µM throughout.

Regarding `N/C(=N\N=C\c1ccc2c(c1)OCCO2)NO`, the TGI with KM12 colon is over 100 µM; in the test with NCI-H460 lung, over 100 µM; in the test with NCI-H226 lung it was 27.5 µM; in the test on U251 CNS, over 100 µM; with EKVX NSCLC it was over 100 µM; in the test with OVCAR-8 ovarian, over 76.6 µM. In addition, the TGI with OVCAR-4 ovarian and with SW-620 colon was over 100 µM each time.

On to `O=C1C(Cl)=C(Nc2ccc(S(=O)(=O)Nc3ccccn3)cc2)C(=O)c2ccccc21`, for which the TGI worked out at 32.4 µM in the test on KM12 colon; 19.2 µM in the test with NCI-H460 lung; 42.1 µM with NCI-H226 lung; 29.8 µM in the test with BT-549 breast; 19.3 µM in the test on U251 CNS; 31.7 µM with EKVX NSCLC. Further, the TGI in the test with OVCAR-8 ovarian is 15.9 µM; with MDA-N, 13.9 µM; in the test on M14 melanoma, 15.4 µM; in the test with OVCAR-4 ovarian, over 53.6 µM; with SW-620 colon, over 73.5 µM.

As for `CC1(C)OCC=CCO1`, the TGI in the test on KM12 colon, in the test with NCI-H460 lung, with NCI-H226 lung, in the test with BT-549 breast, in the test on U251 CNS and in the test with EKVX NSCLC was over 100 µM throughout. The TGI with OVCAR-8 ovarian, in the test with MDA-N, in the test on M14 melanoma, with OVCAR-4 ovarian and in the test on SW-620 colon was over 100 µM throughout.

As to `COc1cc(C(O)(CC#N)c2cc3c(cc2Br)OCO3)cc(OC)c1OC` (stereo unspecified), the TGI in the test on KM12 colon is 98.7 µM; in the test on NCI-H460 lung it was 50.8 µM; in the test with NCI-H226 lung it was 83.3 µM; in the test on BT-549 breast, over 100 µM; in the test with U251 CNS it was over 100 µM; in the test on EKVX NSCLC, over 100 µM. Also, the TGI in the test with OVCAR-8 ovarian is over 100 µM; with MDA-N it was over 100 µM; in the test with M14 melanoma, 50.5 µM; in the test with OVCAR-4 ovarian it was over 100 µM; in the test with SW-620 colon it was over 100 µM.

`COc1cc2c(cc1OCCCC(=O)Nc1ccc3ccc4cccc5ccc1c3c45)N=C[C@@H]1CCCN1C2=O`: the GI50 with KM12 colon is 0.104 µM; in the test with NCI-H460 lung it was under 0.0484 µM; with NCI-H226 lung, under 0.0109 µM; in the test with U251 CNS, under 0.01 µM; in the test on EKVX NSCLC, 0.0299 µM; with OVCAR-8 ovarian, under 0.0134 µM. Also, the GI50 is under 0.01 µM in the test with M14 melanoma, under 0.01 µM with OVCAR-4 ovarian and under 0.0126 µM in the test on SW-620 colon. In addition, the TGI was 0.725 µM with KM12 colon; 0.31 µM with NCI-H460 lung; under 0.0243 µM in the test on NCI-H226 lung; over 100 µM with U251 CNS; 0.169 µM in the test with EKVX NSCLC; under 0.0245 µM in the test on OVCAR-8 ovarian. The TGI is under 0.01 µM in the test on M14 melanoma, 10.1 µM in the test on OVCAR-4 ovarian and 0.0483 µM with SW-620 colon.
